Assay [1] has as its target T1, Serine/threonine-protein kinase NLK (Homo sapiens) (UniProt Q9UBE8).
T1 sequence (whole entry): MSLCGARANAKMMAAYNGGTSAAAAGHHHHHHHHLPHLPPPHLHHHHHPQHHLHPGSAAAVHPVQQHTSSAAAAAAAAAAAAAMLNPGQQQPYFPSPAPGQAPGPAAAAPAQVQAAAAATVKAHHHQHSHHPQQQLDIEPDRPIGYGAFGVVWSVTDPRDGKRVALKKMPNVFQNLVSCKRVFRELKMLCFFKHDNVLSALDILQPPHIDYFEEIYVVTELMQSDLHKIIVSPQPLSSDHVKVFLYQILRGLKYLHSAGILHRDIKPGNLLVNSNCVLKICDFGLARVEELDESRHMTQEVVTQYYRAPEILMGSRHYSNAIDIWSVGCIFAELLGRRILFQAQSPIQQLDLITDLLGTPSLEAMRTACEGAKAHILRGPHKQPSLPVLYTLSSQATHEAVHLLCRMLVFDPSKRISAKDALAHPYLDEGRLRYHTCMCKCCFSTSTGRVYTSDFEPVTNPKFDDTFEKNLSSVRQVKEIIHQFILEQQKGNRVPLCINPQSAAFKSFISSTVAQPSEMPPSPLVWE
Description: Selectivity interaction (Ambit KINOMEscan and KiNATiv profiling in Jurkat cells) EUB0000090b NLK. Type of assay: cell-based. To be noted: at 1 µM.

In assay [2] the target is T2, Kinase suppressor of Ras 1 (Homo sapiens) (UniProt Q8IVT5).
T2 sequence (whole entry): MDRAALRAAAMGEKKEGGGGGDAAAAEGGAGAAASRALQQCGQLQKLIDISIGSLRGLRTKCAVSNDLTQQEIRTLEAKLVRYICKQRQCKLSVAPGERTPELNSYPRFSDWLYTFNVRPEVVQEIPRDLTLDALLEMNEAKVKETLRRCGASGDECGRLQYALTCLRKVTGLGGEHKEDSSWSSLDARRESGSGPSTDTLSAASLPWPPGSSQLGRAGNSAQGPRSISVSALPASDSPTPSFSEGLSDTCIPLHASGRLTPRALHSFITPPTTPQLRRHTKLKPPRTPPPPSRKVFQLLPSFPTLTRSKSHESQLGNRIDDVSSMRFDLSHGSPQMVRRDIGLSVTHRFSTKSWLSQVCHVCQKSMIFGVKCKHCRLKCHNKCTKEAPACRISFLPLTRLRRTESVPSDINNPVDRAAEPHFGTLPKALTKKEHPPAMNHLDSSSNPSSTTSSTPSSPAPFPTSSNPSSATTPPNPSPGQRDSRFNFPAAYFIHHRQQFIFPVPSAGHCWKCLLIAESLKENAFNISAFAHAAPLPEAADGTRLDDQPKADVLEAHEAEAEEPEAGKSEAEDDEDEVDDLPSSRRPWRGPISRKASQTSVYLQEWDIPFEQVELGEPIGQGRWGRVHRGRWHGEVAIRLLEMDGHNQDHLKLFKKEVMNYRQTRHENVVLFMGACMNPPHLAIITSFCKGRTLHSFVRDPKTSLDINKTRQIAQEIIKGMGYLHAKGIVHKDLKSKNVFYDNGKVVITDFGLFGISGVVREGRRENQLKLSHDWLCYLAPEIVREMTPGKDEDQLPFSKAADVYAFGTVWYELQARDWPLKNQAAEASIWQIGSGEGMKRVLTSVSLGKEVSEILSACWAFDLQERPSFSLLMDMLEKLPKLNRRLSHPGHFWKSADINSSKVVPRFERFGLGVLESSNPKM
In words: Selectivity interaction (ActivX KiNativ screen (kinase selectivity in THP-1 cell lysates)) EUB0000639a KSR1. Type of assay: subcellular. Conditions: lysate.

Assay [3] has as its target T3, Serine/threonine-protein kinase Nek10 (Homo sapiens) (UniProt Q6ZWH5).
T3 sequence (whole entry): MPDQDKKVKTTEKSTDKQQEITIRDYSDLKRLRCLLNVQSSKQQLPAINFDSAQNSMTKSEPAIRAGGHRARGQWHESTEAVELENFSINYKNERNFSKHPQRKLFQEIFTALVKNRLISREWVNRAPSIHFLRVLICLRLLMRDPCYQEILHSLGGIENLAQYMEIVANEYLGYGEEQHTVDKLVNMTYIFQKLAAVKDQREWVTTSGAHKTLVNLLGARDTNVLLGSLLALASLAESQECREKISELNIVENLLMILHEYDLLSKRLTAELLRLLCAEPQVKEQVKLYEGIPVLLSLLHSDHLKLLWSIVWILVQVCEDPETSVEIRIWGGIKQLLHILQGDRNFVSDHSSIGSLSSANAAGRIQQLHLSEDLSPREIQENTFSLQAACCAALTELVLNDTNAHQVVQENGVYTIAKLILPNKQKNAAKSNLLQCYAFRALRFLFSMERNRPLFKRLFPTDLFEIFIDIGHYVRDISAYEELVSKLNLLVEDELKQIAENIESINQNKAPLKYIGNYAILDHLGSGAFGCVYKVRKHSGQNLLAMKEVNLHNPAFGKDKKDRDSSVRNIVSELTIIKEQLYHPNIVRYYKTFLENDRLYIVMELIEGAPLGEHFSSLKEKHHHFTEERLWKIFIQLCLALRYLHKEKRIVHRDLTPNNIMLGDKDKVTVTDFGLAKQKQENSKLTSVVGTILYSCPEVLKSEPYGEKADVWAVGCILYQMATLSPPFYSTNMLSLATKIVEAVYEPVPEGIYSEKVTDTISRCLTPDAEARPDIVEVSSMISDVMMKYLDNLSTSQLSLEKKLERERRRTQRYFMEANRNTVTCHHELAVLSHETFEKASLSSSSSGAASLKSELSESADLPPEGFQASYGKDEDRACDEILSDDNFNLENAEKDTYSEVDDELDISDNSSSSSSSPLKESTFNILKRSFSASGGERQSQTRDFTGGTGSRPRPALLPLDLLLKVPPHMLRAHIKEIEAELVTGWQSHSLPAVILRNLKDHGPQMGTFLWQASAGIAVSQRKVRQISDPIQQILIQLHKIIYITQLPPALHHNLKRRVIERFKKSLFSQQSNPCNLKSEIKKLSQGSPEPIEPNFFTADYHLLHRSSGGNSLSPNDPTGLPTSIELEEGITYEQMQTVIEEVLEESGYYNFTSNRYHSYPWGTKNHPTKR
In words: Selectivity interaction (KinomeScan (DiscoverX)) EUB0001049a NEK10. To be noted: at 1 µM.

SMILES strings stand for the structures.

In assay [1], `CN(C)C/C=C/C(=O)Nc1ccc(C(=O)N2CCCC(Nc3ncc(Cl)c(-c4c[nH]c5ccccc45)n3)C2)cc1` (configuration not stated) displayed a % of control of 52%.
Regarding `CC[C@@H]1[C@H](F)C(=O)N[C@@H]1COc1nccc2cc(C(N)=O)c(OC)cc12` [ZIMLOVISERTIB], the % of inhibition in assay [2] (at 0.01 µM) was 2.4%; in assay [2] (at 0.04 µM), -6.6%; in assay [2] (at 0.2 µM), -8.6%; in assay [2] (at 1 µM) it was -32.8%; in assay [2] (at 5 µM), -57.9%.
In assay [3], `COc1cc(Nc2nc(C)cc(-c3cnn4nc(OC)ccc34)n2)cc(C(F)(F)F)c1` displayed a % of control of 100%.

These data come from ChEMBL document CHEMBL5465560, “Selectivity Literature for EUbOPEN Chemogenomic Library” (2024).
